This is an account of results in patent US6043278A, “Perfluoralkyl substituted metallo-beta-lactamase inhibitors” (Isis Innovation Limited, priority 1995, dated 2000).

Test [1] concerns the target T1, Class B β-lactamase (B. cereus enzyme) (Bacillus cereus, UniProt P04190).
T1 construct: from a range of bacteria, including: Xanthomonas maltophilia, Bacillus cereus; endogenous in cells; host or cells: Bacillus cereus (enzyme purified from the bacterium)
As to the kind of experiment: Ki determination, initial rate of hydrolysis of reporter substrate cephalosporin C. The class given is biochemical. As for the experimental part: (§1) Class B β-lactamases were purified according to published^4 or standard procedures from a range of bacteria, including: Xanthomonas maltophilia, Bacillus cereus, Pseudomonas aeruginosa and Aeromonas hydrophila.
(§2) Assays for inhibition were also carried out according to published procedures^4. Kinetic experiments were typically carried out at 30° C. with 30 mM sodium cacodylate buffer, pH 6.5, containing 0.1 mM ZnCl2.
(§3) The Ki (inhibition constant) values were determined by analysing the initial rate of hydrolysis at different inhibitor concentrations using the following reporter substrates: 30 μm nitrocefin (X. maltophilia enzyme), 200 μM imipenem (A. hydrophila), or 1 mM cephalosporin C (B. cereus and P. aeruginosa enzymes). Data analysis was carried out according to standard kinetic procedures [Felici, A. et al., Biochem. J., 291, 151-155 (1993) and references therein].

Test [2] addresses T2, Class B β-lactamase (P. aeruginosa enzyme) (Pseudomonas aeruginosa, UniProt Q79MP6).
T2 construct: Bacillus cereus, Pseudomonas aeruginosa and Aeromonas hydrophila; endogenous in cells; host or cells: Pseudomonas aeruginosa (enzyme purified from the bacterium)
Described as above. The note with it: competitive inhibition; 1 mM cephalosporin C; 30° C., pH 6.5, 0.1 mM ZnCl2; read-out: Ki (inhibition constant). The class given is biochemical. As for the experimental part:
as §1, §2, §3

Test [3] addresses T3, Class B β-lactamase (A. hydrophila enzyme) (Aeromonas hydrophila, UniProt P26918).
T3 construct: Bacillus cereus, Pseudomonas aeruginosa and Aeromonas hydrophila; endogenous in cells; host or cells: Aeromonas hydrophila (enzyme purified from the bacterium)
Nature of the test: Inhibition/inactivation kinetics, reporter substrate imipenem. The note with it: for mode of inhibition of the A. hydrophila enzyme: further kinetic analyses, no reactivation was observed; for Ki: inactivation kinetics, 200 μM imipenem, 30° C., pH 6.5, 0.1 mM ZnCl2, read-out: K = apparent binding constant between the enzyme and substrate. The class given is biochemical. As to the method: as §1, §2, §3
Compounds 3, 4, 5, 6, 7 and 9 were also shown to be inhibitors of the A. hydrophila enzyme. […] The following kinetic parameters were obtained, where K=apparent binding constant between the enzyme and substrate and k+2 =apparent rate constant for inactivation as in the following scheme: [formula] Kinetic data for compound 3: K=6 μM, k+2 =4.3×10^-2 s^-1

Test [4] has as its target T4, Class B β-lactamase (X. maltophilia enzyme) (Stenotrophomonas maltophilia, UniProt P52700).
T4 construct: standard procedures from a range of bacteria, including: Xanthomonas maltophilia; endogenous in cells; host or cells: Xanthomonas maltophilia (enzyme purified from the bacterium)
As to the kind of experiment: Ki determination, initial rate of hydrolysis of reporter substrate nitrocefin. In kind it is biochemical, Xanthomonas maltophilia. As to the method:
as §1, §2, §3

Setting [5] is: competitive inhibition, 1 mM cephalosporin C, 30° C., pH 6.5, 0.1 mM ZnCl2, read-out: Ki (inhibition constant).
The mark [6] stands for this setting: read-out: Ki (inhibition constant), competitive inhibition, 1 mM cephalosporin C, 30° C., pH 6.5, 0.1 mM ZnCl2.

Read-outs that look alike come from different tables or passages of the source.

T4 sequence (P52700 34-290): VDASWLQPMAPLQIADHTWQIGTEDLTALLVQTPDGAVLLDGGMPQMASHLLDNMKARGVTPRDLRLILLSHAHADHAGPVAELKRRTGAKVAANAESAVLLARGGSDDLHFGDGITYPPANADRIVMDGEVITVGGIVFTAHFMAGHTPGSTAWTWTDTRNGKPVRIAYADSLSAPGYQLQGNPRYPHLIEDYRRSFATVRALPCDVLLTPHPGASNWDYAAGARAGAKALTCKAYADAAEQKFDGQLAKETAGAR
T1 sequence (P04190 31-257): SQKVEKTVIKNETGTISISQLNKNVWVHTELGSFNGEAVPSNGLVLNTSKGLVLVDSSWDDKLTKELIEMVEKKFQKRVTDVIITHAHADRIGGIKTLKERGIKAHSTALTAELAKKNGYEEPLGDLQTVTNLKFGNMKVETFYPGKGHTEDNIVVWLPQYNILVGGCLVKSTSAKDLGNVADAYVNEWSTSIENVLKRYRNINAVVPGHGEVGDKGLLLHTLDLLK
T2 sequence (Q79MP6 19-246 limits assumed): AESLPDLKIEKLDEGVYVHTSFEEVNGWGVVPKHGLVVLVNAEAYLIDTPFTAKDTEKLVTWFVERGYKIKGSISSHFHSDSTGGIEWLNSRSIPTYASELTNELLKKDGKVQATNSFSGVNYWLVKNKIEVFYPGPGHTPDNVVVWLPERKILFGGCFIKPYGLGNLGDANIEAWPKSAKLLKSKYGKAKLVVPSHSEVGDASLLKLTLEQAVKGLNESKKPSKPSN
T3 sequence (P26918 28-254): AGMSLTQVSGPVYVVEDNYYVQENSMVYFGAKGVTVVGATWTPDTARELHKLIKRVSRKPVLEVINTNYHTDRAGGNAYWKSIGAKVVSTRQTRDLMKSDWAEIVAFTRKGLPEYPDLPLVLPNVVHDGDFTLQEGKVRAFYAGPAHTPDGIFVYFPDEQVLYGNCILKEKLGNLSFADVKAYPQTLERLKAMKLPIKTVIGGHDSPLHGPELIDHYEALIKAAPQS

Consider `O=C(CC(=O)C(F)(F)F)c1ccccc1` [Compound 1, reference compound], for which the Ki in test [1] (setting [5]) worked out at 300 µM.

Take `O=C(COc1ccccc1)N[C@@H](Cc1ccccc1)C(=O)C(F)(F)F` [Compound 3]: the Ki in test [1] is 500 µM; in test [2] it was 530 µM; in test [3], 6 µM; in test [4], 15 µM. The “mode of inhibition of the A. hydrophila enzyme” value in test [3] is recorded as “inactivators”.

Regarding `C[C@@H](NC(=O)COc1ccccc1)[C@H](O)C(F)(F)F` [Compound 9], the Ki in test [1] (setting [6]) turned out to be 700 µM; in test [2], 400 µM; in test [3] it was 217 µM; in test [4] (read-out: Ki (inhibition constant), competitive inhibition, 30 μm nitrocefin, 30° C., 30 mM sodium cacodylate pH 6.5, 0.1 mM ZnCl2), 35 µM. Moreover, in test [3], the “mode of inhibition of the A. hydrophila enzyme” value is given as “inactivators”.

Turning to `C[C@@H](NC(=O)COc1ccccc1)C(=O)C(F)(F)F` [Compound 7], the Ki in test [1] is 700 µM; in test [2], 500 µM; in test [3], 11 µM; in test [4], 3 µM. Further, the “mode of inhibition of the A. hydrophila enzyme” value in test [3] is reported as “inactivators”.

`O=C(COc1ccccc1)N[C@H](Cc1ccccc1)C(=O)C(F)(F)F` [Compound 2]: the Ki in test [1] (setting [5]) turned out to be 1000 µM.

For the molecule `O=C(COc1ccccc1)N[C@H](Cc1ccccc1)[C@H](O)C(F)(F)F` [Compound 5], the figures for the Ki in test [1] (setting [6]), in test [2] and in test [3] were 30 µM, 60 µM and 20 µM, respectively. In addition, in test [3], the “mode of inhibition of the A. hydrophila enzyme” value was “inactivators”.

As to `C[C@H](NC(=O)COc1ccccc1)C(=O)C(F)(F)F` [Compound 6], the Ki in test [1] was found to be 30 µM; in test [2] it was 300 µM; in test [3] it was 44 µM; in test [4] it was 1.5 µM. In test [3], the “mode of inhibition of the A. hydrophila enzyme” value is listed as “inactivators”.

For the molecule `O=C(COc1ccccc1)N[C@@H](Cc1ccccc1)[C@H](O)C(F)(F)F` [Compound 4], the Ki in test [1] (setting [6]) is 1000 µM; in test [2], 900 µM; in test [3], 19 µM. Besides, in test [3], the “mode of inhibition of the A. hydrophila enzyme” value is “inactivators”.

Regarding `C[C@H](NC(=O)COc1ccccc1)[C@H](O)C(F)(F)F` [Compound 8], the results for the Ki in test [1] (setting [6]) and in test [2] were 300 µM and 400 µM, respectively.
